Consider 1 molecule from patent US20210147481A1, “PEPTIDE-BASED INHIBITORS OF MARK FAMILY PROTEINS” (Ohio Universtiy, priority 2017, published 2021).

Peptide text beside a SMILES is read from it.

A short description of data set [1]: In vitro peptide stability in neurobasal (NB) media (RP-HPLC). The class given is in vitro ADME. The conditions noted are these: 37° C., up to 24 hours. How it is done:
Stock peptide solutions for use in stability assays were prepared by dissolving tR1 to a final concentration of 5 mg/mL in dimethyl sulfoxide (DMSO). For stability tests, 2 μL of stock tR1 peptides were added to 198 μL pre-warmed RPMI medium supplemented with 25% (v/v) heat-inactivated human AB serum or neurobasal (NB) media at a final concentration of 50 μg/mL. Each reaction was subsequently incubated at 37° C. for the indicated times. Following incubation, 400 μL aqueous trichloroacetic acid (15%, w/v) was added to each reaction and the samples were immediately cooled on ice for 15 minutes. The samples were then centrifuged 3× at 14,000 rpm to remove precipitated proteins. […] The background signal was subtracted from each respective spectrum and the fraction of intact peptide was quantified from product peak integration normalized to undigested controls. […]
A major limitation to the therapeutic efficacy of peptides is their susceptibility to proteolytic degradation. Indeed, short peptides generally have a serum half-life measured in minutes. The in vitro stability of tR1 peptides in the presence of proteolytic enzymes was determined. […] Following the incubation, the reactions were quenched using haloacetic acids and the extent of degradation was quantified by analytical HPLC.

Data set [2] addresses MARK2 (Rattus norvegicus, UniProt O08679). Description: Immunofluorescence of PAO-induced MARK2-mediated tau Ser262 phosphorylation in neurons. The format is cell-based.
Data set [3] deals with MARK2 (Homo sapiens, UniProt Q7KZI7). The experiment in a line: Validation of tR1 as a substrate for MARK2 (western blot, α-pTau Ser262). The conditions noted are these: ATP, 60 minutes at 32° C. The format is biochemical. An excerpt:
Once an otherwise competent kinase-substrate pair was developed for a working phosphorylation assay, tR1 was validated as a substrate for MARK2. The tR1 peptide (NVKSKIGSTENLK [SEQ ID NO: 1]) was synthesized using standard Fmoc-based solid-phase synthesis procedures and the final sequence was either acylated (tR1) or labeled with 5-carboxyfluorescein (tR1) on its N-terminus (FIG. 6A). See the experimental procedures, below, for details on the synthesis, labeling, purification and characterization of tR1 peptides. To evaluate whether tR1 is recognized as a substrate by MARK2, MARK2 was incubated with ATP in the presence of varying concentrations of tR1 peptide for 60 minutes at 32° C. in phosphorylation buffer. Following incubation, phosphorylated tR1 peptides were separated by SDS-PAGE and identified by Western blot using antibodies specific for hTau pSer262 (FIG. 6B). Western blot analysis confirmed tR1 as a substrate of MARK2 by the presence of a sharp band at the highest concentration (100 μM).
Phosphorylation assays were performed in 30 μL phosphorylation buffer (50 mM Tris-HCl, 5 mM MgCl2, 2 mM EGTA, 0.5 mM DTT, 0.5 mM benzamidine HCl, 0.5 mM PMSF, pH 8.0) and depending on the experimental conditions. […] Images were acquired by a Bio-Rad Gel Doc EZ imager and the band intensity was quantified using Image Lab Software c5.2.1 (Bio-Rad).
Background: Immunoblotting shows a protein as a band on a membrane.

MARK2 (Rattus norvegicus, UniProt O08679), sequence (O08679 whole entry): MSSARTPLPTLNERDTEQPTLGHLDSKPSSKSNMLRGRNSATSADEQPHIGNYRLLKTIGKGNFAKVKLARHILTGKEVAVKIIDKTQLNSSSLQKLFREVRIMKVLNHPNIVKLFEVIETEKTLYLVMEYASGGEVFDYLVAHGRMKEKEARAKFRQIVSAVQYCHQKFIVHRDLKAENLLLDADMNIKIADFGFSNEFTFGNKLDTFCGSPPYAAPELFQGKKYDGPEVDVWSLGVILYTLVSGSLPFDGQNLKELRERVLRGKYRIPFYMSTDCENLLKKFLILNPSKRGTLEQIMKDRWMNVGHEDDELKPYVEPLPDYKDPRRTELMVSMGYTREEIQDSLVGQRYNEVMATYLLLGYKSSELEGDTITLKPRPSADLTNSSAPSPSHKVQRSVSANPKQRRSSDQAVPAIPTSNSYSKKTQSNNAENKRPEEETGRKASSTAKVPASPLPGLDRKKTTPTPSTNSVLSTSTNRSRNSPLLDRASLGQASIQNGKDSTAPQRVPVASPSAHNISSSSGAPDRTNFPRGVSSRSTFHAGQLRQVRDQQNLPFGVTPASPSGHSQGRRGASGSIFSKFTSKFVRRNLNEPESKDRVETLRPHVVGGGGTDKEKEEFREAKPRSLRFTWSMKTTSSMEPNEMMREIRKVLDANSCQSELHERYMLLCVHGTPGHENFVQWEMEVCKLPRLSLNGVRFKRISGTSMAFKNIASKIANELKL
MARK2 (Homo sapiens, UniProt Q7KZI7), sequence (Q7KZI7 whole entry): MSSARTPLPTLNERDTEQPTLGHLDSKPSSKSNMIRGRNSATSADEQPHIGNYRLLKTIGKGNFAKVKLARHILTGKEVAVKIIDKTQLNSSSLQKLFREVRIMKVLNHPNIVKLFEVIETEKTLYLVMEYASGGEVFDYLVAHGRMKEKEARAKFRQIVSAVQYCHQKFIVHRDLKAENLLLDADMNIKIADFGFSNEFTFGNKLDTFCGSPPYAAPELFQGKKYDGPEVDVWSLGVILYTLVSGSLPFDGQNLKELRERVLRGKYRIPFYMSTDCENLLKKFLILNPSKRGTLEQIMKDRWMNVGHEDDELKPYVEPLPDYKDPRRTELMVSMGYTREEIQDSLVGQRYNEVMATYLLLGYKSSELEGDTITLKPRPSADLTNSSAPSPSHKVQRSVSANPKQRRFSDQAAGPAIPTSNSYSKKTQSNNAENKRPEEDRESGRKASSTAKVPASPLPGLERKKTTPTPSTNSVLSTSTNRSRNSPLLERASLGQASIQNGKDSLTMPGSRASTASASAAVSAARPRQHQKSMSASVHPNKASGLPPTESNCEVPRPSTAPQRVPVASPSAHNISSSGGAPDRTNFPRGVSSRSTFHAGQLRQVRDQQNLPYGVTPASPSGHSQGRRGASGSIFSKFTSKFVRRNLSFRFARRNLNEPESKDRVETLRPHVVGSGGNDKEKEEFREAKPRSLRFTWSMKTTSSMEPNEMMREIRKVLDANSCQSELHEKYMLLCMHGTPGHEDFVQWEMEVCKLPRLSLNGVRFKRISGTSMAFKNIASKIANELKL

On to `CC[C@H](C)[C@H](NC(=O)[C@H](CCCCN)NC(=O)[C@H](CO)NC(=O)[C@H](CCCCN)NC(=O)[C@@H](NC(=O)[C@H](CC(N)=O)NC(C)=O)C(C)C)C(=O)NCC(=O)N[C@@H](CO)C(=O)N[C@H](C(=O)N[C@@H](CCC(=O)O)C(=O)N[C@@H](CC(N)=O)C(=O)N[C@@H](CC(C)C)C(=O)N[C@@H](CCCCN)C(N)=O)[C@@H](C)O` [tR1, NVKSKIGSTENLK] (Ac-NVKSKIGSTENLK-NH2), for which the “fraction of intact tR1 (stable)” value in data set [1] is greater than 90%. Moreover, the remaining at 24 h, 50 μg/mL in data set [1] (neurobasal (NB) media, read-out: fraction of intact tR1 (stable)) was greater than 90%. Also, the “reduction in tau Ser262 phosphorylation” value in data set [2] (10 μM tR1, co-treated with bafilomycin A1 or 100 μM chloroquine, 5 μM PAO) is “modest reduction in tau phosphorylation”. For the same molecule, in data set [2] (30 μM peptide and bafilomycin, PAO), the “loss in tau pSer262 signal compared to cells treated with PAO alone” value is listed as roughly 50%. In addition, in data set [2] (30 μM peptide and chloroquine, PAO), the “loss in tau pSer262 signal” value was “loss in signal comparable to that of baseline”. Also, the “inhibition of MARK2-mediated phosphorylation of tau Ser262” value in data set [2] (30 μM tR1, co-treated with bafilomycin A1 or 100 μM chloroquine, 5 μM PAO) is on record as “near complete inhibition”; in data set [2] (tR1 peptides alone (no endosome disruptor), 5 μM PAO), “did not inhibit”. Besides, the “phosphorylation of tR1 by MARK2 (western blot)” value is “Phosphorylation was not seen” in data set [3] (0, 1, or 10 μM peptide) and “sharp band” in data set [3] (100 μM peptide).
